The values that follow come from US9277748B2, “Agonist/antagonist compositions and methods of use” (The United States of America, as represented by the …, priority 2010, dated 2016).

Data set [1] concerns the target CHO cells expressing TRPV1 (CHO-rTRPV1) (Rattus norvegicus, UniProt O35433). The data set can be described thus: Intracellular Ca2+ imaging, agonist and antagonist added simultaneously. The class given is cell-based. As for the experimental part: The stable CHO cell clone expressing rTRPV1 (Tet-Off) was the generous gift of James E. Krause and Daniel N. Cortwright (Neurogen Corp., Branford, Conn., USA). These cells were cultured in maintaining medium (HAM F-12 supplemented with 10% FBS (USA sourced, Atlanta biologicals, Lawrenceville, Ga., USA), 25 mM HEPES, pH 7.5, 250 μg/ml geneticin (F-12, HEPES, and geneticin are from Invitrogen, Carlsbad, Calif., USA) and 1 mg/L tetracycline (Calbiochem, La Jolla, Calif., USA).
CHO-rTRPV1 cells were seeded on 25 mm round glass coverslips in 35×10 mm tissue culture dishes in maintaining medium. After 24 hours, the medium was replaced with inducing medium (maintaining medium without geneticin and tetracycline, but containing 1 mM sodium butyrate) to induce TRPV1 expression. Experiments were performed approximately 24 hours after induction. For fura-2 AM (Invitrogen, Carlsbad, Calif., USA) loading, the cells were incubated in DPBS containing calcium and magnesium (Invitrogen, Carlsbad, Calif., USA), 0.5 mg/ml BSA (Sigma, St. Louis, Mo., USA), and 5 μM Fura-2 AM for 2 hours in the dark at 20° C. After 2 hours, the loaded cells were washed 2× with DPBS without calcium and magnesium and immersed in maintaining medium until the measurements. The measurements were carried out in DPBS containing calcium and magnesium, plus 0.5 mg/ml BSA. The fluorescence of individual cells treated simultaneously with a single dose of agonist and antagonist was measured with an InCyt Im2 fluorescence imaging system (Intracellular Imaging, Cincinnati, Ohio, USA). The cells within the selected field were illuminated alternately at 340 and 380 nm. Emitted light >510 nm was measured. To determine the approximate intracellular Ca^2+ concentrations, the system was calibrated using a fura-2 calibration kit (Invitrogen, Carlsbad, Calif., USA). Data were analyzed with the Incyt software and tabulated with Microsoft Excel spreadsheet and graphed with Origin 6.0 (OriginLab Corp., Northhampton, Mass., USA) software.
The TRPV1 agonist and antagonist were added simultaneously to fura-2 AM loaded CHO-rTRPV1 cells after 90 seconds from the beginning of the measurement (baseline) and monitored continuously for an additional 10 minutes. Inhibition values were compared to the maximally effective dose of capsaicin (300 nM) in the same experiment (see FIGS. 2A-2E) or to the indicated concentration of capsaicin (see FIGS. 3A-3E). Experiments were performed three times, each on different days with approximately 30-49 cells measured.

The next data set relates to subjects. Particulars: cited from earlier work.

Molecules are shown by their SMILES. “Also recorded” adds a separate entry of the source. Like-named read-outs stand apart in the source and are kept apart here.

CHO cells expressing TRPV1 (CHO-rTRPV1), sequence (O35433 whole entry): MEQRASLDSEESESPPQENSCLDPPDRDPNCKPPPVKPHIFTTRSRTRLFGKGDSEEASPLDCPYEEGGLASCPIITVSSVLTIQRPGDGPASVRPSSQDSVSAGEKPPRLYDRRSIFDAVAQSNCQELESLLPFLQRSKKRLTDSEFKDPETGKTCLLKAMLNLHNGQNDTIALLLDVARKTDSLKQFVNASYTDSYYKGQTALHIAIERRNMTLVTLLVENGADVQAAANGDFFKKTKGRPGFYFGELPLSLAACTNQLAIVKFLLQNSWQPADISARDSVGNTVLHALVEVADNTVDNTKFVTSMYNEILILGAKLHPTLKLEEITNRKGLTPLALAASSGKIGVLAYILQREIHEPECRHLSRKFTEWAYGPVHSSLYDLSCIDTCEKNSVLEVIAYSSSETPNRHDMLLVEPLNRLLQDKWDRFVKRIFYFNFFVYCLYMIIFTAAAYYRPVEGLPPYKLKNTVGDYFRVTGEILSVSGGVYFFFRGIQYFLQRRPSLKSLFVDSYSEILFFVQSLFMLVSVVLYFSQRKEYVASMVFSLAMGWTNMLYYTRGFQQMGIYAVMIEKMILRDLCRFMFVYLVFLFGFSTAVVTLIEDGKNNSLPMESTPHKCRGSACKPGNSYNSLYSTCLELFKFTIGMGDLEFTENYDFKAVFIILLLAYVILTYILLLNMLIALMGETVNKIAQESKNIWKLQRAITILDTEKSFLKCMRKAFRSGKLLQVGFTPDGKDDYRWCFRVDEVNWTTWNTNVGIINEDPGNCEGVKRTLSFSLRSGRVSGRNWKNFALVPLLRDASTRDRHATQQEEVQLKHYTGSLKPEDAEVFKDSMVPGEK

As for `CC(C)(C)c1ccc(/C=C/C(=O)Nc2ccc3c(c2)OCCO3)cc1` [AMG9810], the “initial response to capsaicin as ratio of antagonist to agonist is raised” value in data set [1] was “decrease in the initial response to capsaicin”.

With `CC(C)(C)c1ccc(NC(=O)N2CCN(c3ncccc3Cl)CC2)cc1` [BCTC], the “suitability of antagonist combined with capsaicin to give the desired properties” value in data set [1] is listed as “appropriate ratios of antagonist to agonist exist; also recorded: give the desired properties”.

In the case of `C=C(C)[C@]12C[C@@H](C)[C@@]34O[C@](Cc5ccccc5)(O[C@@H]1[C@@H]3C=C(COC(=O)Cc1cc(I)c(O)c(OC)c1)C[C@]1(O)C(=O)C(C)=C[C@@H]41)O2` [Iodo-RTX], the “suitability of antagonist combined with capsaicin to give the desired properties” value in data set [1] (criterion: maximal response to agonist decreased by not more than 20%, response reduced by at least 80% later, FIGS. 2 and 3) is “give the desired properties”; in data set [1] (criterion: maximal response to agonist decreased by not more than 20%, response reduced by at least 80% later, FIGS. 2 and 3, listed as IodoRTX), “appropriate ratios of antagonist to agonist exist”.

On to `COc1cc(CNC(=O)CCCC/C=C/C(C)C)ccc1O` [capsaicin, trans-8-methyl-N-vanillyl-6-nonenamide], for which, in data set [1] (CHO cells expressing TRPV1, FIGS. 2A-2E), the “intracellular calcium response to agonist” value is reported as “persistent elevation of intracellular calcium”. The compound further gave a maximally effective dose in data set [1] (fura-2 AM loaded CHO-rTRPV1 cells) of 300 nM. Further, the proper inflammation result in the data set with subjects (at 0.90% concentration, small population of individuals) was “does not achieve proper inflammation”; with subjects (at 1.45% concentration) it was “all subjects achieve proper inflammation”. In the data set with subjects (concentration in spray), the “most potent level that can be delivered without potential hazards” value is listed as 1.45%.

As for `Oc1cc2c(cc1O)CN(C(=S)NCCc1ccc(Cl)cc1)CCC2` [capsazepine], the “initial response to capsaicin as ratio of antagonist to agonist is raised” value in data set [1] (FIG. 2D and FIG. 2E) was “decrease in the initial response to capsaicin”.
